Data: ChEMBL document CHEMBL1201862, “PubChem BioAssay data set” (2004)
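Compound exposure: 48 hours, 5 concentrations, 96-well plates. At the GI50, growth is halved.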 The source made the active and inactive calls. Rule as the data show it: active = GI50 up to about 1.1 µM and inactive = higher.

Assays:
Test in all cases: NCI tumour cell line growth inhibition, 48 h
786-0 = system: 786-0
CAKI-1 = system: CAKI-1
DU-145 = system: DU-145
HT-29 = system: HT-29
KM12 = system: KM12
MDA-MB-435 = system: MDA-MB-435
MOLT-4 = system: MOLT-4
NCI/ADR-RES = system: NCI/ADR-RES
OVCAR-4 = system: OVCAR-4
SF-268 = system: SF-268
SF-295 = system: SF-295
SK-OV-3 = system: SK-OV-3
SNB-19 = system: SNB-19
SNB-75 = system: SNB-75
SR = system: SR
U-251 = system: U-251
A549 = system: A549
OVCAR-3 = system: OVCAR-3
OVCAR-5 = system: OVCAR-5
Malme-3M = system: Malme-3M

Compound	GI50 (786-0)	GI50 (CAKI-1)	GI50 (DU-145)	GI50 (HT-29)	GI50 (KM12)	GI50 (MDA-MB-435)	GI50 (MOLT-4)	GI50 (NCI/ADR-RES)	GI50 (OVCAR-4)	GI50 (SF-268)	GI50 (SF-295)	GI50 (SK-OV-3)	GI50 (SNB-19)	GI50 (SNB-75)	GI50 (SR)	GI50 (U-251)	GI50 (A549)	GI50 (OVCAR-3)	GI50 (OVCAR-5)	GI50 (Malme-3M)
NC(=O)N/N=C/c1ccccc1O	> 100 µM (inactive)	> 100 µM (inactive)	> 100 µM (inactive)	> 100 µM (inactive)	> 100 µM (inactive)	> 100 µM (inactive)	> 100 µM (inactive)	> 100 µM (inactive)	> 100 µM (inactive)	> 100 µM (inactive)	> 100 µM (inactive)	> 100 µM (inactive)	> 100 µM (inactive)	> 100 µM (inactive)	> 100 µM (inactive)	> 100 µM (inactive)	–	–	–	–
O=C1/C(=C/c2ccc(OC(=O)c3ccc(Cl)cc3)cc2)CCC/C1=C\c1ccc(OC(=O)c2ccc(Cl)cc2)cc1	55 µM (inactive)	> 100 µM (inactive)	> 100 µM (inactive)	> 100 µM (inactive)	> 100 µM (inactive)	> 100 µM (inactive)	> 100 µM (inactive)	> 100 µM (inactive)	> 100 µM (inactive)	> 100 µM (inactive)	–	–	> 100 µM (inactive)	21 µM (inactive)	> 100 µM (inactive)	64.3 µM (inactive)	> 100 µM (inactive)	> 100 µM (inactive)	> 100 µM (inactive)	–
O=C(c1ccccc1)C1C(c2ccccc2[N+](=O)[O-])N1C1CCCCC1 (configuration not stated)	1.99 µM (inactive)	3.44 µM (inactive)	10.1 µM (inactive)	4.1 µM (inactive)	11.9 µM (inactive)	2.6 µM (inactive)	2.43 µM (inactive)	6.05 µM (inactive)	9.33 µM (inactive)	9.2 µM (inactive)	15.4 µM (inactive)	22.1 µM (inactive)	16.3 µM (inactive)	–	0.634 µM (active)	6.01 µM (inactive)	16.6 µM (inactive)	2.5 µM (inactive)	17 µM (inactive)	12.4 µM (inactive)
CC1=CC(=O)/C(=C/NC(=S)C(N)=S)C(=O)O1	> 100 µM (inactive)	> 100 µM (inactive)	> 100 µM (inactive)	> 100 µM (inactive)	> 100 µM (inactive)	> 100 µM (inactive)	16 µM (inactive)	> 100 µM (inactive)	> 100 µM (inactive)	> 100 µM (inactive)	> 100 µM (inactive)	> 100 µM (inactive)	> 100 µM (inactive)	19 µM (inactive)	47.2 µM (inactive)	> 100 µM (inactive)	> 100 µM (inactive)	> 100 µM (inactive)	> 100 µM (inactive)	–
CC(=O)OCC1OC(n2c(C)c(C(C)=O)c(-c3ccco3)c(C#N)c2=S)C(OC(C)=O)C(OC(C)=O)C1OC(C)=O (configuration not stated)	> 100 µM (inactive)	–	> 100 µM (inactive)	> 100 µM (inactive)	> 100 µM (inactive)	> 100 µM (inactive)	60 µM (inactive)	> 100 µM (inactive)	–	> 100 µM (inactive)	> 100 µM (inactive)	> 100 µM (inactive)	> 100 µM (inactive)	–	> 100 µM (inactive)	> 100 µM (inactive)	> 100 µM (inactive)	> 100 µM (inactive)	> 100 µM (inactive)	> 100 µM (inactive)
Cc1nc(O)nc2nc3ccc(Cl)cc3c(N(CCO)CCO)c12	> 100 µM (inactive)	96.2 µM (inactive)	> 100 µM (inactive)	> 100 µM (inactive)	40 µM (inactive)	> 100 µM (inactive)	> 100 µM (inactive)	> 100 µM (inactive)	18.4 µM (inactive)	> 100 µM (inactive)	> 100 µM (inactive)	> 100 µM (inactive)	> 100 µM (inactive)	–	> 100 µM (inactive)	> 100 µM (inactive)	> 100 µM (inactive)	> 100 µM (inactive)	> 100 µM (inactive)	> 100 µM (inactive)
